In series [1] the test system is MM. The conditions noted are these: lenalidomide maintenance, active vs. control; cited from earlier work.
In series [2] the test system is R/R MM. In words: Study GO39775 / cevostamab monotherapy clinical studies in patients with R/R MM. It counts as in vivo, human. The source says: As of November 2021, two studies are ongoing to confirm the safety and efficacy of cevostamab in this patient population. As such, combination with lenalidomide is expected to deepen and prolong response in patients in remission on the following basis: • FcRH5 is a cell-surface antigen whose expression is restricted to cells of the B linage, including plasma cells. […] Rationale for Cevostamab Dose
The dosing schedule has been modified from a 21-day cycle to a 28-day cycle to accommodate lenalidomide dosing and to ease patient treatment burden. […] A lower target dose of 90 mg Q2W will be the starting point of dose escalation towards 132 mg. These doses have been selected based on the full body of evidence available across cevostamab studies, considering PD, PK, safety, and efficacy data.

Series [3] concerns Fc (Fcγ) receptors. Conditions: N297G non-glycosylated antibody; cited from earlier work.
Series [4] deals with human MM cell lines and primary human MM plasma cells. Conditions: cells with a wide range of FcRH5 expression levels, including minimal expression; cited from earlier work.
Series [5] in a line: Compatibility testing in extension sets. It is filed as physicochemical. Conditions: IV infusion extension sets. The source says: Cevostamab will be administered as a fixed dose independent of body weight. Cevostamab will be administered to patients by IV infusion using standard IV bags where applicable. […] The drug product will be delivered by IV bag infusion, with a final cevostamab volume determined by the dose.

Where [6] appears, read: Study GO39775, 0.3/3.6/160 mg, patients with R/R MM.
[7] abbreviates: Study GO39775, preliminary findings.
Setting [8] is: cevostamab monotherapy, patients with R/R MM.

As for `Nc1cccc2c1CN(C1CCC(=O)NC1=O)C2=O` (stereo not drawn) [lenalidomide], in series [1], the “overall survival (OS)” value is reported as “statistically significant increase” and the “progression-free survival (PFS)” value is recorded as “statistically significant increase”.
As to “cevostamab: Fc-engineered, humanized, full-length non-glycosylated IgG1 kappa T-cell-dependent bispecific antibody (TDB) that binds FcRH5 and CD3”, in series [2] (Study GO39775, 160 mg every three weeks (Q3W)), the “safety of target dose” value is given as “found to be safe”. Also, in series [2] (setting [6]), the “induction of response with double step-up dosing” value was “effective at inducing a response” and the “safety of double step-up dosing” value is given as “safe”. Further, in series [2] (setting [7]), the “clinical response in patients with the lowest FcRH5 expression” value is given as “Clinical response has been observed” and the “objective response in relation to baseline FcRH5 expression” value was “able to achieve an objective response to cevostamab treatment regardless of baseline FcRH5 expression”. In series [2] (setting [8]), the efficacy entry was “shown efficacy” and the safety profile entry is “acceptable safety profile”. The “binding to Fc (Fcγ) receptors” value in series [3] is “minimal binding”. Further, the cell killing entry in series [4] is “broadly active in cell killing”. In addition, the “stability in extension sets” value in series [5] is on record as “stable in extension sets”.

The record behind these values is patent US20250262299A1, “DOSING FOR TREATMENT WITH ANTI-FCRH5/ANTI-CD3 BISPECIFIC ANTIBODIES” (Genentech, Inc., priority 2022, published 2025).
